Data set [1] is described as follows: In vitro release of triclosan from films. In kind it is physicochemical. To be noted: in vitro testing.
The subject of data set [2] is Pseudomonas aeruginosa ATCC 10145. The data set is described as follows: Zone of inhibition (ZOI) on Mueller Hinton agar. In kind it is cell-based. The following applies: 6 mm punches or filter disk, 36° C., 16-18 hours. Here is the method:
(§1) Testing was performed with 4 different species of bacteria. […] S. aureus ATCC 25923; S. epidermidis ATCC 12228; Pseudomonas aeruginosa ATCC 10145; Enterobacter [NT] 29941 Glass culture tubes (VWR #:89001-480); Blank Disks, 6.35 mm diameter (VWR#: 90002-114); 6 mm Disposable Biopsy Punches (VWR#: 21909-144); Mueller Hinton agar dishes (VWR #: 100219-188); 0.5 McFarland turbidity standard (VWR #: 29447-318); dPBS (VWR #: 12001-664); Cotton swabs; Incubator; Thermometer; Bacterial hood […] Swirl the swab in this tube and when removing the swab, press it into the side of the tube above the liquid. • Inoculate Mueller-Hinton agar plates by streaking once down the middle of the plate. […] After streaking the entire plate, streak the swab around the rim of the plate. • Place filter disks/punches onto the dish. • Place in the 36° C. incubator within 15 minutes inoculating dish. • Incubate 16-18 hours. • Measure ZOI in millimeters using slide caliper (ZOI was measured a linear distance measured through the center point of the disk). FIG. 28 illustrates the minimum effective concentration and measured ZOI.

Data set [3] concerns Enterobacter cloacae ATCC 29941. As to the kind of experiment: Zone of inhibition (ZOI) on Mueller Hinton agar. In kind it is cell-based. To be noted: 6 mm punches or filter disk, 36° C., 16-18 hours. Here is the method: as §1
The subject of the next data set is S. aureus ATCC 25923. The data set is described as follows: Zone of inhibition (ZOI) on Mueller Hinton agar. To be noted: 6 mm punches or filter disk, 36° C., 16-18 hours. In kind it is cell-based. As to the method: as §1
The test system of data set [4] is S. epidermidis ATCC 12228. As to the kind of experiment: Zone of inhibition (ZOI) on Mueller Hinton agar. The following applies: 6 mm punches or filter disk, 36° C., 16-18 hours. In kind it is cell-based. Here is the method: as §1
The nature of data set [5]: Implantation of sleeve-covered metal plates in sheep. To be noted: within 24 hours after insertion, sleeves.
Protocol: In one exemplary embodiment, implants were tested by implantation in sheep. The implants were metal plates with tubular, thin (0.05-0.08 mm), transparent polymer sleeves carefully slipped over the metal plates just before they were surgically inserted and attached to the bone. […] The sleeves were comprised of a synthetic copolyester (glycolide, caprolactone, trimethylenecarbonate, lactide) with aperture holes of 1.5 mm diameter equally spaced throughout.

`Oc1cc(Cl)ccc1Oc1ccc(Cl)cc1Cl` [triclosan, 2,4,4′-trichloro-2′-hydroxydiphenyl ether]: in data set [1], the initial burst release result was “minimal” and the “period of release from films” value is reported as “slowly over a to 3 weeks period”.

For the molecule Gentamicin [120 ug gentamicin], the “Avg. ZOI (mm) P. aeruginosa” value in data set [2] (0.1-5% films data set) amounted to 26.7 mm; in data set [2] (13% film tested separately) it was 24.90 mm. Besides, the “Avg. ZOI (mm) E. cloacae” value was 22.4 mm in data set [3] (0.1-5% films data set) and 25.27 mm in data set [3] (13% film tested separately). Besides, the “Avg. ZOI (mm) S. aureus” value in the data set on S. aureus ATCC 25923 (0.1-5% films data set) was found to be 30.5 mm; in the data set on S. aureus ATCC 25923 (13% film tested separately) it was 28.73 mm. The results for the “Avg. ZOI (mm) S. epidermidis” value in data set [4] (0.1-5% films data set) and in data set [4] (13% film tested separately) were 34.9 mm and 31.37 mm, respectively.

As to gentamicin, in data set [5], the “gentamicin released into the adjacent tissue” value is “Approximately 50%”.
